Results: ChEMBL document CHEMBL4359887, “Hitting on the move: Targeting intrinsically disordered protein states of the MDM2-p53 interaction” (Eur J Med Chem, 2019)

How the values were obtained:
[1] = molecular target: T1, Protein Mdm4 (Homo sapiens, UniProt O15151)
T1 sequence (O15151 whole entry): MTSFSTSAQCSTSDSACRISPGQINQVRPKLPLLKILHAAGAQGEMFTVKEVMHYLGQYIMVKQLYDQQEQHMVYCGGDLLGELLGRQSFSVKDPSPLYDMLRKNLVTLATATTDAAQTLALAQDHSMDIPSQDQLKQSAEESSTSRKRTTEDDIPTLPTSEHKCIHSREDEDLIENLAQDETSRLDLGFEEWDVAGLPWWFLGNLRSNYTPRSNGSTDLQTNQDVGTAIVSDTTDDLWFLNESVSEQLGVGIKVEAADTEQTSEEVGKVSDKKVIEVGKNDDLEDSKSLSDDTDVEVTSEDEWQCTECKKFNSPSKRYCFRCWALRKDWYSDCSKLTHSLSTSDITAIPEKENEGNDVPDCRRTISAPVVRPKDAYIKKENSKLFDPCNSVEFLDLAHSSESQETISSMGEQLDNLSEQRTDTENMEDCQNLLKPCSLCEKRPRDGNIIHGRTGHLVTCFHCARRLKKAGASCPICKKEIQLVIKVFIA

[2] = molecular target: E3 ubiquitin-protein ligase Mdm2 (Homo sapiens, UniProt Q00987)
[3] = system: HCT-116; assay: Induction of apoptosis in human HCT116 cells expressing wild type p53 assessed as necrotic cells at 20 uM measured after 72 hrs by annexin V-FITC/propidium iodide staining-based flow cytometry analysis (reference value: 0.7 %); assay type: functional
[4] = system: HCT-116; assay: Induction of apoptosis in human HCT116 cells assessed as late apoptotic cells expressing wild type p53 at 20 uM measured after 72 hrs by annexin V-FITC/propidium iodide staining-based flow cytometry analysis (reference value: 6.8 %); assay type: functional
[5] = system: HCT-116; assay: Induction of apoptosis in human HCT116 cells expressing wild type p53 assessed as early apoptotic cells expressing wild type p53 at 20 uM measured after 72 hrs by annexin V-FITC/propidium iodide staining-based flow cytometry analysis (reference value: 8.8 %); assay type: functional
[6] = system: HCT-116; assay: Induction of apoptosis in human HCT116 cells expressing wild type p53 assessed as live cells at 20 uM measured after 72 hrs by annexin V-FITC/propidium iodide staining-based flow cytometry analysis (reference value: 83.7 %); assay type: functional
[7] = system: SAOS-2; assay: Anticancer activity against p53-deleted human Saos2 cells assessed as inhibition of cell viability measured after 5 days by MTT assay; conditions: SAOS-2, 120 h
[8] = system: U2OS; assay: Anticancer activity against human U2OS cells expressing wild-type p53 assessed as inhibition of cell viability measured after 5 days by MTT assay; conditions: 120 h

E3 ubiquitin-protein ligase Mdm2, sequence (Q00987 whole entry): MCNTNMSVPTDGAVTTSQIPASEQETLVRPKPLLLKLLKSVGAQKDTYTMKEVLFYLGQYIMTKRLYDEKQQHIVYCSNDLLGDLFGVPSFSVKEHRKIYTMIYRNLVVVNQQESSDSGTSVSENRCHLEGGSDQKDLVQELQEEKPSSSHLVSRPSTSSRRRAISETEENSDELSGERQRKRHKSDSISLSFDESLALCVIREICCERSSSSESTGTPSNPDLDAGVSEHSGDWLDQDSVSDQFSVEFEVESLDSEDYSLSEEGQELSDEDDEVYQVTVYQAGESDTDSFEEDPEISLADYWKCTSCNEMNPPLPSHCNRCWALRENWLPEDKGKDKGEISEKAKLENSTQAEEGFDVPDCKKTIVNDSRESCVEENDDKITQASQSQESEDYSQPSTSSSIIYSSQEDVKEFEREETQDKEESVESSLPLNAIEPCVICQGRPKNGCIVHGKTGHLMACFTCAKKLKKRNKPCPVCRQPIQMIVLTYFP

| Compound | Ki [1] | Activity [3] | Activity [4] | Activity [5] | Activity [6] | further results |
| --- | --- | --- | --- | --- | --- | --- |
| CC(C)(C)NC(=O)C(NCc1ccc(OCc2ccccc2Br)cc1)c1c(C(=O)O)[nH]c2cc(Cl)ccc12 (stereo not given) | Not Active | – | – | – | – | – |
| O=CN(Cc1ccc(OCc2ccc(Br)cc2)cc1)C(C(=O)NC12CC3CC(CC(C3)C1)C2)c1c(C(=O)O)[nH]c2cc(Cl)ccc12 (stereo not given) | Not Active | – | – | – | – | – |
| CC(C)(C)NC(=O)C(c1c(C(=O)O)[nH]c2cc(Cl)ccc12)N(C=O)Cc1ccc(OCc2ccc([N+](=O)[O-])cc2)cc1 (stereo not given) | Not Active | – | – | – | – | Ki [2]: Not Active |
| CCOC(=O)c1[nH]c2cc(Cl)ccc2c1C(C(=O)NC(C)(C)C)N(C=O)Cc1ccc(OCc2ccc(C)cc2)cc1 (stereo not given) | – | 0.9% | 48.8% | 37.3% | 13% | – |
| Cc1ccc(COc2ccc(CN(C=O)C(C(=O)NC(C)(C)C)c3c(C(=O)O)[nH]c4cc(Cl)ccc34)cc2)cc1 (stereo not given) | – | 4.7% | 8.7% | 10.3% | 76.2% | – |
| CCOC(=O)c1[nH]c2cc(Cl)ccc2c1C(C(=O)NC(C)(C)C)N(C=O)Cc1ccc(OCc2ccccc2I)cc1 (stereo not given) | – | 1.3% | 6.2% | 6.3% | 86.3% | – |
| CC(C)(C)NC(=O)C(c1c(C(=O)O)[nH]c2cc(Cl)ccc12)N(C=O)Cc1ccc(OCc2ccncc2)cc1 (stereo not given) | Not Active | – | – | – | – | – |
| CC(C)(C)NC(=O)C(c1c(C(=O)O)[nH]c2cc(Cl)ccc12)N(C=O)Cc1cc(F)c(OCc2ccccc2)c(F)c1 (stereo not given) | Not Active | – | – | – | – | – |
| CC(C)(C)NC(=O)C(c1c(C(=O)O)[nH]c2cc(Cl)ccc12)N(C=O)CCc1ccc(OCc2ccc(Br)cc2)cc1 (stereo not given) | Not Active | – | – | – | – | – |
| CC(C)(C)NC(=O)C(c1c(C(=O)O)[nH]c2cc(Cl)ccc12)N(C=O)Cc1ccc(OCc2c(Cl)cccc2Cl)cc1 (stereo not given) | Not Active | – | – | – | – | – |
| CC(C)(C)NC(=O)C(c1c(C(=O)O)[nH]c2cc(Cl)ccc12)N(C=O)Cc1ccc(OCc2ccccc2I)cc1 (stereo not given) | – | 1.3% | 6.9% | 7.1% | 84.4% | – |
| COc1cccc(COc2ccc(CN(C=O)C(C(=O)NC(C)(C)C)c3c(C(=O)O)[nH]c4cc(Cl)ccc34)cc2)c1 (stereo not given) | – | 0.8% | 8.9% | 13.5% | 76.8% | – |
| CC(C)(C)NC(=O)C(c1ccc(Cl)cc1)N(C=O)Cc1ccc(OCc2ccc(Cl)c(Cl)c2)cc1 (stereo not given) | Not Active | – | – | – | – | Ki [2]: Not Active |
| CC(C)(C)NC(=O)C(c1c(C(=O)O)[nH]c2cc(Cl)ccc12)N(C=O)CCCN1CCOCC1 (stereo not given) | Not Active | – | – | – | – | – |
| CN(Cc1ccc(OCc2ccccc2Br)cc1)C(C(=O)NC(C)(C)C)c1c(C(=O)O)[nH]c2cc(Cl)ccc12 (stereo not given) | Not Active | – | – | – | – | Ki [2]: Not Active |
| CCOC(=O)c1[nH]c2cc(Cl)ccc2c1C(C(=O)NC(C)(C)C)N(C=O)Cc1ccc(OCc2ccc(Cl)c(Cl)c2)cc1 (stereo not given) | – | 0.4% | 42.4% | 27.1% | 30% | – |
| CC(C)(C)NC(=O)C(c1cccc(Cl)c1)N(C=O)Cc1ccc(Cl)cc1 (stereo not given) | Not Active | – | – | – | – | Ki [2]: Not Active |
| O=CN(CCc1ccccc1)C(C(=O)NCCc1ccccc1)c1c(C(=O)O)[nH]c2cc(Cl)ccc12 (stereo not given) | Not Active | – | – | – | – | – |
| CC(C)(C)NC(=O)C(c1c(C(=O)O)[nH]c2cc(Cl)ccc12)N(C=O)Cc1ccc(OCc2ccsc2)cc1 (stereo not given) | Not Active | – | – | – | – | Ki [2]: Not Active |
| CCOC(=O)c1[nH]c2cc(Cl)ccc2c1C(C(=O)NC(C)(C)C)N(C=O)Cc1ccc(OCCc2ccccc2)cc1 (stereo not given) | – | 0.7% | 40.2% | 46.6% | 12.6% | – |
| O=CN(Cc1ccc(OCc2ccc(F)cc2)cc1)C(C(=O)NC12CC3CC(CC(C3)C1)C2)c1c(C(=O)O)[nH]c2cc(Cl)ccc12 (stereo not given) | Not Active | – | – | – | – | Ki [2]: Not Active |
| CCOC(=O)c1[nH]c2cc(Cl)ccc2c1C(C(=O)NC(C)(C)C)N(C=O)Cc1ccc(OCc2ccc(Br)cc2)cc1 (stereo not given) | – | 0.8% | 19.1% | 42.7% | 37.4% | – |

| Compound | Ki [1] | Activity [3] | Activity [4] | Activity [5] | Activity [6] | further results |
| --- | --- | --- | --- | --- | --- | --- |
| CC(=O)N(Cc1ccc(OCc2ccc(F)cc2)cc1)C(C(=O)NC1CCCCC1)c1c(C(=O)O)[nH]c2cc(Cl)ccc12 (stereo not given) | Not Active | – | – | – | – | – |
| CC(C)(C)NC(=O)C(c1c(C(=O)O)[nH]c2cc(Cl)ccc12)N(C=O)Cc1ccc(OCc2ccc(Br)cc2)cc1 (stereo not given) | – | 0.7% | 11.6% | 9.8% | 77.9% | – |
| CC(=O)N(Cc1ccc(OCc2ccccc2)cc1)C(C(=O)NC12CC3CC(CC(C3)C1)C2)c1c(C(=O)O)[nH]c2cc(Cl)ccc12 (stereo not given) | Not Active | – | – | – | – | – |
| CC(C)(C)NC(=O)C(c1c(C(=O)O)[nH]c2cc(Cl)ccc12)N(C=O)Cc1ccc(OCc2ccc(Cl)c(Cl)c2)cc1 (stereo not given) | – | 1.1% | 7.7% | 10% | 81.2% | – |
| CC(C)(C)NC(=O)C(c1c(C(=O)O)[nH]c2cc(Cl)ccc12)N(C=O)Cc1ccc(OCc2cc(F)cc(F)c2)cc1 (stereo not given) | – | 0.7% | 7.9% | 11.9% | 79.6% | – |
| CCOC(=O)c1[nH]c2cc(Cl)ccc2c1C(C(=O)NC(C)(C)C)N(C=O)Cc1ccc(OCc2ccccc2Br)cc1 (stereo not given) | – | 0.7% | 57.2% | 32.3% | 9.9% | – |
| O=CN(Cc1ccc(OCc2ccccc2Br)cc1)C(C(=O)NC1C2CC3CC(C2)CC1C3)c1c(C(=O)O)[nH]c2cc(Cl)ccc12 (stereo not given) | – | – | – | – | – | EC50 [7]: 130 µM; EC50 [8]: 40 µM |
| CCOC(=O)c1[nH]c2cc(Cl)ccc2c1C(C(=O)NC(C)(C)C)N(C=O)Cc1ccc(OCc2cccc(Cl)c2)cc1 (stereo not given) | – | 1.2% | 42.7% | 21.6% | 34.5% | – |
| CC(C)(C)NC(=O)[C@H](c1c(C(=O)O)[nH]c2cc(Cl)ccc12)N(C=O)Cc1ccc(OCc2ccccc2Br)cc1 | – | – | – | – | – | EC50 [7]: 200 µM; EC50 [8]: 130 µM |
| O=CN(CCc1ccccc1)C(C(=O)NC12CC3CC(CC(C3)C1)C2)c1c(C(=O)O)[nH]c2cc(Cl)ccc12 (stereo not given) | Not Active | – | – | – | – | – |
| CCOC(=O)c1[nH]c2cc(Cl)ccc2c1C(C(=O)NC(C)(C)C)N(C=O)Cc1ccc(OCc2ccsc2)cc1 (stereo not given) | Not Active | – | – | – | – | – |
| CCOC(=O)c1[nH]c2cc(Cl)ccc2c1C(C(=O)NC(C)(C)C)N(C=O)Cc1ccc(OCc2cccc(OC)c2)cc1 (stereo not given) | – | 0.8% | 6.1% | 8.3% | 84.8% | – |
| CC(C)(C)NC(=O)C(c1c(C(=O)O)[nH]c2cc(Cl)ccc12)N(C=O)Cc1ccc(OCc2cccnc2)cc1 (stereo not given) | Not Active | – | – | – | – | Ki [2]: Not Active |
| CCOC(=O)c1[nH]c2cc(Cl)ccc2c1C(C(=O)NC(C)(C)C)N(C=O)Cc1ccc(OCc2cc(F)cc(F)c2)cc1 (stereo not given) | – | 0.5% | 40.2% | 45.2% | 14.1% | – |
| CC(C)(C)NC(=O)C(c1c(C(=O)NCCN2CCOCC2)[nH]c2cc(Cl)ccc12)N(C=O)Cc1ccc(OCc2ccccc2Br)cc1 (stereo not given) | Not Active | – | – | – | – | – |
| CC(C)(C)NC(=O)C(c1c(C(=O)O)[nH]c2cc(Cl)ccc12)N(C=O)Cc1ccc(OCc2cccc(Cl)c2)cc1 (stereo not given) | – | 0.9% | 7.9% | 10.2% | 81% | – |
| CCOC(=O)c1[nH]c2cc(Cl)ccc2c1C(C(=O)NC(C)(C)C)N(C=O)Cc1ccc(NCc2ccc(Br)cc2)cc1 (stereo not given) | Not Active | 2.6% | 23.6% | 15.2% | 58.6% | – |
| CC(C)(C)NC(=O)C(c1c(C(=O)O)[nH]c2cc(Cl)ccc12)N(C=O)Cc1ccc(OCCc2ccccc2)cc1 (stereo not given) | Not Active | 0.5% | 10.7% | 8.1% | 80.7% | – |
| Cn1c(C(=O)O)c(C(C(=O)NC(C)(C)C)N(C=O)Cc2ccc(OCc3ccccc3Br)cc2)c2ccc(Cl)cc21 (stereo not given) | Not Active | – | – | – | – | Ki [2]: Not Active |
| CC(C)(C)NC(=O)C(c1c(C(=O)O)[nH]c2cc(Cl)ccc12)N(C=O)Cc1ccc(NCc2ccc(Br)cc2)cc1 (stereo not given) | – | 6% | 18.8% | 9.6% | 65.6% | – |
| CC(C)(C)NC(=O)C(c1c(C(=O)O)[nH]c2cc(Cl)ccc12)N(C=O)Cc1ccc(OCc2ccccc2Br)cc1 (racemic) | – | 1% | 14.6% | 15.4% | 69.1% | – |
| COc1ccc(C2=N[C@@H](c3ccc(Cl)cc3)[C@@H](c3ccc(Cl)cc3)N2C(=O)N2CCNC(=O)C2)c(OC(C)C)c1 [NUTLIN-3] | – | 1.2% | 18.9% | 26.9% | 53% | Ki [2]: Not Active |
